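Cells were grown in 96-well plates and exposed to each compound for 48 hours at five concentrations; endpoints were interpolated linearly between bracketing concentrations, or set to the highest concentration if not reached. Abbreviation: GI50, concentration required for 50% inhibition of growth. TGI: concentration producing complete growth inhibition.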
Experiments:
Assay in all cases: DTP human tumour cell line panel, 48 h
[1] = system: M19-MEL melanoma
[2] = system: SK-MEL-28 melanoma
[3] = system: HCT-116 colon
[4] = system: MALME-3M melanoma
[5] = system: SK-MEL-2 melanoma
[6] = system: M14 melanoma
[7] = system: UACC-257 melanoma
[8] = system: SNB-78 CNS

Row | SMILES | TGI [1] [µM] | TGI [2] [µM] | TGI [3] [µM] | TGI [4] [µM] | TGI [5] [µM] | TGI [6] [µM] | TGI [7] [µM] | TGI [8] [µM] | GI50 [2] [µM] | GI50 [3] [µM] | GI50 [7] [µM] | GI50 [4] [µM] | GI50 [8] [µM] | GI50 [5] [µM] | GI50 [6] [µM]
1 | CN=NN(C)C(=O)NC | > 100 | > 100 | > 100 | > 100 | > 100 | > 100 |  |  |  |  |  |  |  |  | 
2 | COc1ccc(C(=O)C(CO)Oc2ccccc2OC)cc1OC (configuration not stated) | > 100 | > 100 | > 100 | > 100 | > 100 | > 100 | > 100 | > 100 |  |  |  |  |  |  | 
3 | COC(=O)/C=C/C1C(C(=O)OC)C2(C(=O)OC)CCC1(C(=O)OC)N2 (configuration not stated) | > 100 |  | > 100 | > 100 | > 100 | > 100 | > 100 | > 100 |  |  |  |  |  |  | 
4 | CC1=C(C(=O)Nc2c(C)cccc2C)C(c2ccccc2Cl)C(C(=O)Nc2c(C)cccc2C)=C(C)N1 | > 100 | > 100 |  | > 100 | > 100 | > 100 | > 100 | > 100 |  |  |  |  |  |  | 
5 | N#C/C(=C\c1ccc(O)c(O)c1)C(N)=O | > 100 | > 100 | 67.9 | > 100 | > 100 | > 100 | > 100 | > 100 |  |  |  |  |  |  | 
6 | CCCCCCCCCc1cc(=O)c2c(O)cccc2o1 | > 10 | > 100 | > 100 | > 100 | 64.7 | > 100 | > 100 | > 100 |  |  |  |  |  |  | 
7 | O=C(CSc1nnc(-c2ccccc2NC(=O)C(F)(F)F)c(=O)[nH]1)NC(=O)Nc1ccccc1 | > 100 | > 100 | > 100 | > 100 | > 100 | > 100 |  | > 100 |  |  |  |  |  |  | 
8 | CC(=O)OCC1OC([S-])C(OC(C)=O)C(OC(C)=O)C1OC(C)=O.CC[PH+](CC)CC.CC[PH+](CC)CC.[Au].[Au] (configuration not stated) | 0.806 | 0.791 | 1.7 | 0.32 | 0.49 | 0.322 | 0.937 | 2.79 | 0.167 | 0.397 | 0.214 | 0.137 | 0.311 | 0.187 | 0.14
9 | CCOC(=O)C1N(S(=O)(=O)c2ccc(C)cc2)CCC12C(c1ccc(OC)cc1)NC1CCCCC12 (configuration not stated) | > 100 | > 100 | > 100 | > 100 |  | > 100 | > 100 | > 100 |  |  |  |  |  |  | 
10 | CCOC(=O)[C@H](CCCNC(=O)OC(C)(C)C)NCc1ccc(OC)c(OC)c1 | > 100 | > 100 | > 100 | > 100 | > 100 | > 100 | > 100 |  |  |  |  |  |  |  | 
11 | N#CC(/C(=N/NC(=O)C(=O)NN)C(=O)NC12CC3CC(CC(C3)C1)C2)c1ccccc1 (configuration not stated) | > 100 | > 100 | > 100 | > 100 | > 100 | > 100 | > 100 | > 100 |  |  |  |  |  |  | 
12 | CC(C)(C)N1CC2(CCCCC2)C1=O | > 100 | > 100 | > 100 | > 100 | > 100 | > 100 | > 100 | > 100 |  |  |  |  |  |  | 
13 | COc1c(C)c2c(c(C)c1Cl)Oc1c(C=O)c(O)c(Cl)c(C)c1C(=O)O2 | > 100 |  | 61.9 | 61 |  | > 100 | > 100 | 54.7 |  |  |  |  |  |  | 

— PubChem BioAssay (NCI)
